Measured values reported in the supplement of paper PMC12463676, “Small-molecule dissolution of stress granules by redox modulation benefits ALS models” (Nature Chemical Biology, 2025).

Columns and labels:
lipoamide = compound: NC(=O)CCCCC1CCSS1 [lipoamide]; experiment: thermal stability z-score vs DMSO; higher = more thermally stabilized by treatment; details: HeLa, lipoamide concentration 100 µM
Protocol: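 Cellular thermal proteome profiling in HeLa cells. Cells were treated with 100 µM lipoamide for 1 h, with or without 1 mM arsenate for a further 1 h, then heated to ten temperatures (37-66.3 °C), and soluble protein was quantified by TMT mass spectrometry relative to 0.1% DMSO controls. The thermal stability score (sum of log2 fold changes minus the abundance score) was transformed to a z-score; mean of n = 3 experiments.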

potassium arsenate = compound: O=[As]([O-])(O)O.[K+] [potassium arsenate]; experiment: as above; details: HeLa; arsenate concentration 1 mM
Protocol: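 Cellular thermal proteome profiling in HeLa cells treated with 1 mM arsenate for 1 h (DMSO pretreatment), heated to ten temperatures (37-66.3 °C). Soluble protein was quantified by TMT mass spectrometry relative to DMSO controls; the thermal stability score was transformed to a z-score; mean of n = 3 experiments.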

[1] = arsenate co-treatment: 1 mM arsenate 1 h
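Note: each temperature applied for 3 min, abundance score taken as mean log2 fold change at the two lowest temperatures, z-score obtained by mean subtraction and division by SD.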

UniProt Q07864, sequence (Q07864 whole entry): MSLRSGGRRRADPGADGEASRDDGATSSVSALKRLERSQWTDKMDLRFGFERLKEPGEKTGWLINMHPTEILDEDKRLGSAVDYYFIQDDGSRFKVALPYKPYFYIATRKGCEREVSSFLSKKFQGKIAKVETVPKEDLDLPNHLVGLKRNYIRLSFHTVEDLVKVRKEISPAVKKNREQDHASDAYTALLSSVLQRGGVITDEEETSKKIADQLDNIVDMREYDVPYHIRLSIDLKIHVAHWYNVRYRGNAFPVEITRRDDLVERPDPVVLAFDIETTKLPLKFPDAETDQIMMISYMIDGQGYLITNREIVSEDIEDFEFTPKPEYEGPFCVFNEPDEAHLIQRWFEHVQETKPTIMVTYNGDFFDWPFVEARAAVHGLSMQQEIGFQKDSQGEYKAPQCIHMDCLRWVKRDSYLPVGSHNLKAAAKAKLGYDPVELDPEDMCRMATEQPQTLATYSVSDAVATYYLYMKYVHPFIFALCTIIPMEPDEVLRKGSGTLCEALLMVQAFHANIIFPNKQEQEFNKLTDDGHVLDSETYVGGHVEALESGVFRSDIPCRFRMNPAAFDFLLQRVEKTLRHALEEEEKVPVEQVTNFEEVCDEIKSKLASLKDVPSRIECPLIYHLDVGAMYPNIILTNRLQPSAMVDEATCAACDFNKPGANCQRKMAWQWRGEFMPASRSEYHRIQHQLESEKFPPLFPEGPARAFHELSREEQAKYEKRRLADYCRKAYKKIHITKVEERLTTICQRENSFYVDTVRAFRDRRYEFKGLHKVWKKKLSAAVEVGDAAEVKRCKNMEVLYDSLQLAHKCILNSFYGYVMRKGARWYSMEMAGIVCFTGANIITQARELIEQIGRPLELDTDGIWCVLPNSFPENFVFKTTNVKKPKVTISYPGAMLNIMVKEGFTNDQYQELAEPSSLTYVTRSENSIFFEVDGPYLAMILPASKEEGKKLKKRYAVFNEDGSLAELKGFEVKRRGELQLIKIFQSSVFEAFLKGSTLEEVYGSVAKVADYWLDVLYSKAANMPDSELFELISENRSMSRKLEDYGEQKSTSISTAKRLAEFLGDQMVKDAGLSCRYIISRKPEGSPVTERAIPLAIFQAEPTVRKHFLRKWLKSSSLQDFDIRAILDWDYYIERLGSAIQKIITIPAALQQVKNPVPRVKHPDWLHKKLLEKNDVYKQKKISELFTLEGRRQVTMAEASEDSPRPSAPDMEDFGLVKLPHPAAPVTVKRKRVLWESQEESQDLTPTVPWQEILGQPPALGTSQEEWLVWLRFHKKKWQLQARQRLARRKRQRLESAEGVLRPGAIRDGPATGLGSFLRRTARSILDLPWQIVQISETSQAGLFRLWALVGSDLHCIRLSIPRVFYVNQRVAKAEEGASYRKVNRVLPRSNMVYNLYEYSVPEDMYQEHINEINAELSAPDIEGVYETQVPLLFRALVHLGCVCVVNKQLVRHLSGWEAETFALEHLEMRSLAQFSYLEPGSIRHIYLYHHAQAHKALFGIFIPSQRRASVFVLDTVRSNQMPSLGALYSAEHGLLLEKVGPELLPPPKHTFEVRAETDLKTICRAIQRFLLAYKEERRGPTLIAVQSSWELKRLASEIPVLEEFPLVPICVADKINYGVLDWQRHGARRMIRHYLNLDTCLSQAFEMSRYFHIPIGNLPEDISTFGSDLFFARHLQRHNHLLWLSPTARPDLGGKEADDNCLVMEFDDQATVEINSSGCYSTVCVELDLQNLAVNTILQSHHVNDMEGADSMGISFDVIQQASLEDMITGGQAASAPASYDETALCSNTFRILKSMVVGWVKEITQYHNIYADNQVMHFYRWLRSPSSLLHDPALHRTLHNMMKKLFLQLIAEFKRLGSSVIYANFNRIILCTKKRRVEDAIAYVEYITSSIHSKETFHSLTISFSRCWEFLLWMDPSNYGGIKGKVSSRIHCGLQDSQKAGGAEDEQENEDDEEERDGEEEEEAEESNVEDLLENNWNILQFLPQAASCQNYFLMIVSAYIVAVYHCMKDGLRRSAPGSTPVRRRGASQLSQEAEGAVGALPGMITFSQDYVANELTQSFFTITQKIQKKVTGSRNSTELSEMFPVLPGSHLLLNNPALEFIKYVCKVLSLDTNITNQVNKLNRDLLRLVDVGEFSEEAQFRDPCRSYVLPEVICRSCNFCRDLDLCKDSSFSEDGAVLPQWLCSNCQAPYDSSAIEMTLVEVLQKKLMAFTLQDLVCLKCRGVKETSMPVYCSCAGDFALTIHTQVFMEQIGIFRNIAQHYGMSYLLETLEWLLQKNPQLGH
UniProt Q9UHN1, sequence (Q9UHN1 whole entry): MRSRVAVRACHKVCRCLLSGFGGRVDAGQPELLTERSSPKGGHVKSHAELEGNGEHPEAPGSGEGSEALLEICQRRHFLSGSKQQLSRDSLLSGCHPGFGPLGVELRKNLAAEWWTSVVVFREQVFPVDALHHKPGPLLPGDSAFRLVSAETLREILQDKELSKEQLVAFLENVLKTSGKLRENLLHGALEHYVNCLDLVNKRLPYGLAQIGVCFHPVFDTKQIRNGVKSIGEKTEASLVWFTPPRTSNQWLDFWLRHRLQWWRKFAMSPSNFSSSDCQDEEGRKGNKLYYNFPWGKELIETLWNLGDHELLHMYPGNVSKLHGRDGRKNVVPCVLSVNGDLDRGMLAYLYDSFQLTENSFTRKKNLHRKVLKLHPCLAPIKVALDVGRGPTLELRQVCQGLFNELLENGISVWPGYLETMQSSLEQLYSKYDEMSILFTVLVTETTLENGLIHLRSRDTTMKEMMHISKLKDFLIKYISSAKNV
UniProt Q8IYS1, sequence (Q8IYS1 whole entry): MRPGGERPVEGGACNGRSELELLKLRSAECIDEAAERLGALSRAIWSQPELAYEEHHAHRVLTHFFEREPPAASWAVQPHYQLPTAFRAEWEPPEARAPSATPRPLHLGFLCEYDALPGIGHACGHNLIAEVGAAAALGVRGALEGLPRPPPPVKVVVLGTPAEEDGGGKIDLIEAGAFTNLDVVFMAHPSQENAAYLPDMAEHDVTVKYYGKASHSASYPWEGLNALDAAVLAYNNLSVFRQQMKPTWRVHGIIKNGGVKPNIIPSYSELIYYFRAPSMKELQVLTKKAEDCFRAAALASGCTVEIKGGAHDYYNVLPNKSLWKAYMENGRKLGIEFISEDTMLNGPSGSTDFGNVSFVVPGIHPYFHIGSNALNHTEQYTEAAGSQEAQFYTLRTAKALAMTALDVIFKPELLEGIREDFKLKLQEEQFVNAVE
UniProt P49005, sequence (P49005 whole entry): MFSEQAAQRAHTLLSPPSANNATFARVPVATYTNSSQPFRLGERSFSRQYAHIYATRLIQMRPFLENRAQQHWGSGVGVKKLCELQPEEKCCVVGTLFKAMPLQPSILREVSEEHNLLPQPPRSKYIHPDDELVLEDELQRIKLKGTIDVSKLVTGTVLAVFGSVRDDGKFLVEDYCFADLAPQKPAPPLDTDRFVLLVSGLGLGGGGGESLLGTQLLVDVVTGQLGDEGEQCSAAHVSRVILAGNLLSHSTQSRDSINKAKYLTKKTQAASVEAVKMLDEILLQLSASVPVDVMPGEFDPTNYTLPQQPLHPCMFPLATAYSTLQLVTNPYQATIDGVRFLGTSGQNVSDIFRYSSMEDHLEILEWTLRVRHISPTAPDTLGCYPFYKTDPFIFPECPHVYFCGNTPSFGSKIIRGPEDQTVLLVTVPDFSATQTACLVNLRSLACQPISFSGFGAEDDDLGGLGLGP
UniProt Q9Y2G5, sequence (Q9Y2G5 whole entry): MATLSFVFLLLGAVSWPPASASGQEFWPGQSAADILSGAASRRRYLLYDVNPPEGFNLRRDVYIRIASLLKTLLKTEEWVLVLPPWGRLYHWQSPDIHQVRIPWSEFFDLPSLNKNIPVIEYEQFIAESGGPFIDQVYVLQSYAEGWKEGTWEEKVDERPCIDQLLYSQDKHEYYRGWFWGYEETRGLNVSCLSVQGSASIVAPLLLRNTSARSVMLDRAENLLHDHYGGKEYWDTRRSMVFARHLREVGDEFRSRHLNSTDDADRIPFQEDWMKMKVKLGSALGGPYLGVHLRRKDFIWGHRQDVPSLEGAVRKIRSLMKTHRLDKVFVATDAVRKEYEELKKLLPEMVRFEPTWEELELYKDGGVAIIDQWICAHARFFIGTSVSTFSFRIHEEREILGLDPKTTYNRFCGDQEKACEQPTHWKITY
UniProt Q9NRX1, sequence (Q9NRX1 whole entry): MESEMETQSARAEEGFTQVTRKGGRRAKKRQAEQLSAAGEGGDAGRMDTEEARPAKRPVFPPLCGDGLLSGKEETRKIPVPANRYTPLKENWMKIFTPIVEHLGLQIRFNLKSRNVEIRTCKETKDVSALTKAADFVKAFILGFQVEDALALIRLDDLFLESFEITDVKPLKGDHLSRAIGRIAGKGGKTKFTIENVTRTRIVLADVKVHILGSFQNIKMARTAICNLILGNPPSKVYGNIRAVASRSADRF
UniProt Q9NR33, sequence (Q9NR33 whole entry): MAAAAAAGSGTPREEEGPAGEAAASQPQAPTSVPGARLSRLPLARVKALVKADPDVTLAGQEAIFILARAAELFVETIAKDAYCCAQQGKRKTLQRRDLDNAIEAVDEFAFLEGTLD

Target | thermal stability z-score (lipoamide; [1]) | thermal stability z-score (lipoamide; arsenate co-treatment: none) | thermal stability z-score (potassium arsenate)
PLCL2 (UniProt Q9UPR0) | -0.2 | -0.373 | -0.417
PLD1 (UniProt Q13393) | -0.0197 | 0.0638 | 0.0184
PLD3 (UniProt Q8IV08) | 0.32 | 0.424 | 0.817
PLEC (UniProt Q15149) | 2.76 | 2.01 | -3.9
PLEKHA1 (UniProt Q9HB21) | -0.0949 | -0.105 | -0.185
PLEKHA2 (UniProt Q9HB19) | -0.216 | -0.168 | -0.321
PLEKHA5 (UniProt Q9HAU0) | 0.191 | 0.254 | 0.0794
PLEKHB2 (UniProt Q96CS7) | -0.698 | -0.101 | 0.675
PLEKHF1 (UniProt Q96S99) | -0.218 | -0.0271 | -0.0692
PLEKHF2 (UniProt Q9H8W4) | -0.1 | -0.117 | -0.196
PLEKHO2 (UniProt Q8TD55) | 0.146 | 0.015 | -0.257
PLGRKT (UniProt Q9HBL7) | 0.684 | 0.147 | 0.783
PLIN2 (UniProt Q99541) | 0.587 | 0.338 | 2.1
PLIN3 (UniProt O60664) | 0.559 | 0.461 | 0.704
PLIN4 (UniProt Q96Q06) | 0.188 | 0.324 | 0.741
PLK1 (UniProt P53350) | -0.0395 | -0.233 | -0.584
PLOD1 (UniProt Q02809) | -4.26 | -3.77 | 1.2
PLOD2 (UniProt O00469) | -3.92 | -3.35 | 0.877
PLOD3 (UniProt O60568) | -5.29 | -4.8 | 0.333
PLPP1 (UniProt O14494) | -0.53 | 0.262 | 0.324
PLPP2 (UniProt O43688) | -0.387 | -0.14 | -0.114
PLPP3 (UniProt O14495) | 0.394 | 0.448 | 0.384
PLRG1 (UniProt O43660) | 1.67 | -0.0202 | -0.346
PLS1 (UniProt Q14651) | 0.258 | 0.506 | -0.0678

Target | thermal stability z-score (lipoamide; [1]) | thermal stability z-score (lipoamide; arsenate co-treatment: none) | thermal stability z-score (potassium arsenate)
PLS3 (UniProt P13797) | 0.368 | 0.603 | -0.117
PLXNA1 (UniProt Q9UIW2) | 0.316 | -0.385 | -0.00413
PLXNA2 (UniProt O75051) | 0.937 | 1.3 | -0.219
PLXNB2 (UniProt O15031) | 0.453 | 0.113 | -0.338
PLXND1 (UniProt Q9Y4D7) | -0.194 | -0.712 | 0.534
PM20D2 (UniProt Q8IYS1) | 0.623 | 1.29 | 1.81
PMF1 (UniProt Q6P1K2) | 0.0314 | -0.0395 | 0.367
PML (UniProt P29590) | 1.95 | 0.537 | 5.01
PMM1 (UniProt Q92871) | -0.14 | 0.072 | 0.274
PMM2 (UniProt O15305) | -0.186 | 0.197 | 1.4
PMPCA (UniProt Q10713) | -0.137 | -0.112 | 0.0736
PMPCB (UniProt O75439) | 0.254 | 0.207 | 0.353
PMS1 (UniProt P54277) | -0.133 | -0.0146 | -0.486
PMS2 (UniProt P54278) | -0.198 | -0.101 | -0.0209
PMVK (UniProt Q15126) | -0.641 | 0.0911 | 0.0469
PNISR (UniProt Q8TF01) | 1.06 | 0.149 | -0.509
PNKD (UniProt Q8N490) | 0.175 | 0.758 | 0.929
PNKP (UniProt Q96T60) | -0.0218 | -0.0196 | -0.329
PNN (UniProt Q9H307) | 1.03 | 0.507 | -0.467
PNO1 (UniProt Q9NRX1) | 0.465 | 0.362 | -0.698
PNP (UniProt P00491) | 0.446 | 0.411 | 0.178
PNPLA4 (UniProt P41247) | 0.634 | 0.101 | 1.28
PNPLA6 (UniProt Q8IY17) | 0.758 | 0.548 | 0.246
PNPLA8 (UniProt Q9NP80) | 0.00209 | 0.148 | -0.332

Target | thermal stability z-score (lipoamide; [1]) | thermal stability z-score (lipoamide; arsenate co-treatment: none) | thermal stability z-score (potassium arsenate)
PNPO (UniProt Q9NVS9) | 0.101 | 0.677 | -0.734
PNPT1 (UniProt Q8TCS8) | -0.261 | -0.271 | 0.418
PODXL (UniProt O00592) | 0.0978 | 0.132 | 0.395
POFUT1 (UniProt Q9H488) | -3.78 | -3.17 | 1.06
POFUT2 (UniProt Q9Y2G5) | -1.74 | -2.4 | -0.177
POGK (UniProt Q9P215) | 0.0568 | 0.107 | 0.0895
POGLUT1 (UniProt Q8NBL1) | -3.26 | -3.23 | 1.16
POGZ (UniProt Q7Z3K3) | -0.198 | 0.0592 | -0.422
POLA1 (UniProt P09884) | -0.387 | 0.167 | -0.306
POLA2 (UniProt Q14181) | -0.305 | -0.0588 | -0.183
POLB (UniProt P06746) | -0.0159 | -0.17 | -0.111
POLD1 (UniProt P28340) | 0.0404 | -0.203 | -0.1
POLD2 (UniProt P49005) | 0.196 | 0.117 | -0.0023
POLD3 (UniProt Q15054) | -0.0475 | 0.44 | -0.487
POLDIP2 (UniProt Q9Y2S7) | -0.119 | -0.241 | 0.18
POLDIP3 (UniProt Q9BY77) | -0.257 | 0.0404 | -1.86
POLE3 (UniProt Q9NRF9) | -0.405 | -0.285 | 0.375
POLE4 (UniProt Q9NR33) | 0.919 | 0.928 | -1.07
POLE (UniProt Q07864) | -0.0751 | -0.113 | -0.553
POLG2 (UniProt Q9UHN1) | 0.00241 | -0.266 | -0.833
POLG (UniProt P54098) | 0.0493 | 0.0533 | 0.0154
POLR1A (UniProt O95602) | 0.371 | -0.00373 | -2.59
POLR1B (UniProt Q9H9Y6) | 0.138 | -0.017 | -1.91
